Source: ChEMBL document CHEMBL4002612, “Study of antileishmanial activity of 2-aminobenzoyl amino acid hydrazides and their quinazoline derivatives” (Bioorg Med Chem Lett, 2017)

Columns and labels:
Leishmania aethiopica [1] = test: Antileishmanial activity against promastigote stage of Leishmania aethiopica assessed as parasite growth inhibition after 24 hrs by Alamar blue assay; assay type: functional
Mus musculus [2] = test: Acute toxicity in mouse assessed as change in body weight at 25 to 250 mg/kg/day administered as single dose via oral gavage measured after 3 days; assay type: organism-based; details: in vivo, 72 h
Mus musculus [3] = test: Acute toxicity in mouse assessed as mortality at 25 to 250 mg/kg/day administered as single dose via oral gavage measured after 3 days; assay type: organism-based; details: in vivo, 72 h
Mus musculus [4] = test: Acute toxicity in mouse assessed as mortality up to 100 mg/kg, ip after 7 days; assay type: organism-based; details: in vivo, 168 h
Mus musculus [5] = test: Acute toxicity in mouse assessed as change in kidney texture at 250 mg/kg/day administered as single dose via oral gavage by microscopic method; assay type: organism-based; details: in vivo
Mus musculus [6] = test: Acute toxicity in mouse assessed as change in spleen texture at 250 mg/kg/day administered as single dose via oral gavage by microscopic method; assay type: organism-based; details: in vivo
Mus musculus [7] = test: Acute toxicity in mouse assessed as change in liver texture at 250 mg/kg/day administered as single dose via oral gavage by microscopic method; assay type: organism-based; details: in vivo
Mus musculus [8] = test: Acute toxicity in mouse assessed as change in kidney texture at 100 mg/kg, ip by microscopic method; assay type: organism-based; details: in vivo
Mus musculus [9] = test: Acute toxicity in mouse assessed as change in spleen texture at 100 mg/kg, ip by microscopic method; assay type: organism-based; details: in vivo
Mus musculus [10] = test: Acute toxicity in mouse assessed as change in liver texture at 100 mg/kg, ip by microscopic method; assay type: organism-based; details: in vivo
Leishmania aethiopica [11] = test: Potency index, ratio of mitefosine IC50 to test compound IC50 for promastigote stage of Leishmania aethiopica; assay type: functional

## COC(=O)CNC(=O)c1ccccc1N
Leishmania aethiopica [1]
  IC50: 29.2 µM

## COC(=O)CCNC(=O)c1ccccc1N
Leishmania aethiopica [1]
  IC50: 26.4 µM

## COC(=O)CCCNC(=O)c1ccccc1N
Leishmania aethiopica [1]
  IC50: 17.3 µM

## COC(=O)CCCCCNC(=O)c1ccccc1N
Leishmania aethiopica [1]
  IC50: 21.3 µM

## NNC(=O)CCCCCNC(=O)c1ccccc1N
Leishmania aethiopica [1]
  IC50: 0.051 µM
Mus musculus [2]
  Activity: Non-Toxic
Mus musculus [3]
  Activity: Non-Toxic
Mus musculus [4]
  Activity: Non-Toxic
Mus musculus [5]
  Activity: Non-Toxic
Mus musculus [6]
  Activity: Non-Toxic
Mus musculus [7]
  Activity: Non-Toxic
Mus musculus [8]
  Activity: Non-Toxic
Mus musculus [9]
  Activity: Non-Toxic
Mus musculus [10]
  Activity: Non-Toxic
Leishmania aethiopica [11]
  Ratio IC50: 154

## O=C(CNC(=O)c1ccccc1/N=C/c1ccc(Cl)cc1)N/N=C\c1ccc(Cl)cc1
Leishmania aethiopica [1]
  IC50: 0.052 µM
Mus musculus [2]
  Activity: Non-Toxic
Mus musculus [3]
  Activity: Non-Toxic
Mus musculus [4]
  Activity: Non-Toxic
Mus musculus [5]
  Activity: Non-Toxic
Mus musculus [6]
  Activity: Non-Toxic
Mus musculus [7]
  Activity: Non-Toxic
Mus musculus [8]
  Activity: Non-Toxic
Mus musculus [9]
  Activity: Non-Toxic
Mus musculus [10]
  Activity: Non-Toxic

## O=C(CCCN1C(=O)c2ccccc2NC1c1ccco1)N/N=C/c1ccco1 (centres undefined)
Leishmania aethiopica [1]
  IC50: 10.4 µM

## O=C(CCCCCN1C(=O)c2ccccc2NC1c1ccc2c(c1)OCO2)N/N=C/c1ccc2c(c1)OCO2 (centres undefined)
Leishmania aethiopica [1]
  IC50: 9.33 µM

## O=C(CN1C(=O)c2ccccc2NC1c1ccc2c(c1)OCO2)N/N=C/c1ccc2c(c1)OCO2 (centres undefined)
Leishmania aethiopica [1]
  IC50: 12 µM

## O=C(N/N=C/c1ccc(Cl)cc1)C(Cc1ccccc1)N1C(=O)c2ccccc2NC1c1ccc(Cl)cc1 (centres undefined)
Leishmania aethiopica [1]
  IC50: 10.1 µM

## CC(C(=O)N/N=C/c1ccco1)N1C(=O)c2ccccc2NC1c1ccco1 (centres undefined)
Leishmania aethiopica [1]
  IC50: 10.7 µM

## COC(=O)C(Cc1ccccc1)NC(=O)c1ccccc1N (centres undefined)
Leishmania aethiopica [1]
  IC50: 15.6 µM

## NNC(=O)CNC(=O)c1ccccc1N
Leishmania aethiopica [1]
  IC50: 0.127 µM
Mus musculus [2]
  Activity: Non-Toxic
Mus musculus [3]
  Activity: Non-Toxic
Mus musculus [4]
  Activity: Non-Toxic
Mus musculus [5]
  Activity: Non-Toxic
Mus musculus [6]
  Activity: Non-Toxic
Mus musculus [7]
  Activity: Non-Toxic
Mus musculus [8]
  Activity: Non-Toxic
Mus musculus [9]
  Activity: Non-Toxic
Mus musculus [10]
  Activity: Non-Toxic

## NNC(=O)C(Cc1ccccc1)NC(=O)c1ccccc1N (centres undefined)
Leishmania aethiopica [1]
  IC50: 2.9 µM

## CC(NC(=O)c1ccccc1N)C(=O)NN (centres undefined)
Leishmania aethiopica [1]
  IC50: 0.185 µM
Mus musculus [2]
  Activity: Non-Toxic
Mus musculus [3]
  Activity: Non-Toxic
Mus musculus [4]
  Activity: Non-Toxic
Mus musculus [5]
  Activity: Non-Toxic
Mus musculus [6]
  Activity: Non-Toxic
Mus musculus [7]
  Activity: Non-Toxic
Mus musculus [8]
  Activity: Non-Toxic
Mus musculus [9]
  Activity: Non-Toxic
Mus musculus [10]
  Activity: Non-Toxic

## O=C(CCNC(=O)c1ccccc1/N=C/c1ccc(Cl)cc1)N/N=C/c1ccc(Cl)cc1
Leishmania aethiopica [1]
  IC50: 4.34 µM

## COC(=O)C(C)NC(=O)c1ccccc1N (centres undefined)
Leishmania aethiopica [1]
  IC50: 23 µM

## O=C(CCCCCN1C(=O)c2ccccc2NC1c1ccco1)N/N=C/c1ccco1 (centres undefined)
Leishmania aethiopica [1]
  IC50: 11.1 µM

## O=C(CCN1C(=O)c2ccccc2NC1c1ccccc1)N/N=C/c1ccccc1 (centres undefined)
Leishmania aethiopica [1]
  IC50: 12.6 µM

## COc1ccc(/C=N/NC(=O)CN2C(=O)c3ccccc3NC2c2ccc(OC)cc2)cc1 (centres undefined)
Leishmania aethiopica [1]
  IC50: 9.07 µM

## O=C(N/N=C/c1ccco1)C(Cc1ccccc1)N1C(=O)c2ccccc2NC1c1ccco1 (centres undefined)
Leishmania aethiopica [1]
  IC50: 9.05 µM

## C[C@@H]1[C@H](O)[C@@H](C)/C=C/C=C/C=C/C=C/C=C/C=C/C=C/[C@H](O[C@@H]2O[C@H](C)[C@@H](O)[C@H](N)[C@@H]2O)C[C@@H]2O[C@](O)(C[C@@H](O)C[C@@H](O)[C@H](O)CC[C@@H](O)C[C@@H](O)CC(=O)O[C@H]1C)C[C@H](O)[C@H]2C(=O)O.C[C@H](CCC(=O)O)[C@H]1CC[C@H]2[C@@H]3CC[C@@H]4C[C@H](O)CC[C@]4(C)[C@H]3C[C@H](O)[C@]12C
Leishmania aethiopica [1]
  IC50: 0.035 µM
